These results are taken from patent US20250228835A1, “PYRIDINYLOXYPYRIDINES AND RELATED COMPOUNDS AND THEIR USE IN TREATING MEDICAL CONDITIONS” (Rectify Pharmaceuticals, Inc., priority 2024, published 2025).

What all share (type): cell-based
Experiment [1] addresses T1, ABCC6 WT (Homo sapiens, UniProt O95255).
T1 construct: expressed in transfected cells; host or cells: HEK-293 (transient, Lipofectamine 2000)
The experiment can be described thus: ABCC6 WT assay: HiBit protein expression. The conditions noted are these: HEK-293 cells transiently expressing HiBit-tagged ABCC6 WT; 24 h treatment; top concentration 20 μM; read-out: ABCC6 WT EC50, Emax. An outline of the steps:
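HEK-293 cells transiently transfected with HiBit-tagged human ABCC6 WT cDNA, seeded 24 h post-transfection, treated 24 h at 37° C with ten 2-fold doses (top 20 μM final, 0.15% DMSO). HiBit lytic luminescence reports protein expression; Emax and EC50 derived.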

Experiment [2] has as its target T2, ABCB4 WT (Homo sapiens, UniProt P21439).
T2 construct: expressed in transfected cells
In words: ABCB4 WT assay: HiBit protein expression. The conditions noted are these: HEK-293 cells stably expressing HiBit-tagged ABCB4 WT; 24 h treatment; top concentration 30 μM; read-out: ABCB4 WT EC50, Emax. In a few lines: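 HEK-293 cells stably expressing HiBit-tagged human ABCB4 WT, treated 24 h at 37 °C with 11-dose 3-fold dilutions, top final 30 μM in 0.3% DMSO. HiBit lytic reagent luminescence read after 1 h at 25 °C; Emax and EC50 derived.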

Experiment [3] concerns the target T3, ABCA4 P1380L (Homo sapiens, UniProt P78363, P1380L).
T3 construct: expressed in transfected cells
The experiment can be described thus: A4 correction dose-response assay: ABCA4 P1380L HiBit protein expression. The conditions noted are these: HEK-293 cells stably expressing HiBit-tagged ABCA4 P1380L; 24 h treatment; top concentration 30 μM; read-out: ABCA4 P1380L EC50, Emax. An outline of the steps:
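Cells transfected with HiBit-tagged human ABCA4 P1380L cDNA were treated for 24 h at 37°C with an eleven-point dilution series (top final 30 μM, 0.3% DMSO).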

T2 sequence (P21439 whole entry): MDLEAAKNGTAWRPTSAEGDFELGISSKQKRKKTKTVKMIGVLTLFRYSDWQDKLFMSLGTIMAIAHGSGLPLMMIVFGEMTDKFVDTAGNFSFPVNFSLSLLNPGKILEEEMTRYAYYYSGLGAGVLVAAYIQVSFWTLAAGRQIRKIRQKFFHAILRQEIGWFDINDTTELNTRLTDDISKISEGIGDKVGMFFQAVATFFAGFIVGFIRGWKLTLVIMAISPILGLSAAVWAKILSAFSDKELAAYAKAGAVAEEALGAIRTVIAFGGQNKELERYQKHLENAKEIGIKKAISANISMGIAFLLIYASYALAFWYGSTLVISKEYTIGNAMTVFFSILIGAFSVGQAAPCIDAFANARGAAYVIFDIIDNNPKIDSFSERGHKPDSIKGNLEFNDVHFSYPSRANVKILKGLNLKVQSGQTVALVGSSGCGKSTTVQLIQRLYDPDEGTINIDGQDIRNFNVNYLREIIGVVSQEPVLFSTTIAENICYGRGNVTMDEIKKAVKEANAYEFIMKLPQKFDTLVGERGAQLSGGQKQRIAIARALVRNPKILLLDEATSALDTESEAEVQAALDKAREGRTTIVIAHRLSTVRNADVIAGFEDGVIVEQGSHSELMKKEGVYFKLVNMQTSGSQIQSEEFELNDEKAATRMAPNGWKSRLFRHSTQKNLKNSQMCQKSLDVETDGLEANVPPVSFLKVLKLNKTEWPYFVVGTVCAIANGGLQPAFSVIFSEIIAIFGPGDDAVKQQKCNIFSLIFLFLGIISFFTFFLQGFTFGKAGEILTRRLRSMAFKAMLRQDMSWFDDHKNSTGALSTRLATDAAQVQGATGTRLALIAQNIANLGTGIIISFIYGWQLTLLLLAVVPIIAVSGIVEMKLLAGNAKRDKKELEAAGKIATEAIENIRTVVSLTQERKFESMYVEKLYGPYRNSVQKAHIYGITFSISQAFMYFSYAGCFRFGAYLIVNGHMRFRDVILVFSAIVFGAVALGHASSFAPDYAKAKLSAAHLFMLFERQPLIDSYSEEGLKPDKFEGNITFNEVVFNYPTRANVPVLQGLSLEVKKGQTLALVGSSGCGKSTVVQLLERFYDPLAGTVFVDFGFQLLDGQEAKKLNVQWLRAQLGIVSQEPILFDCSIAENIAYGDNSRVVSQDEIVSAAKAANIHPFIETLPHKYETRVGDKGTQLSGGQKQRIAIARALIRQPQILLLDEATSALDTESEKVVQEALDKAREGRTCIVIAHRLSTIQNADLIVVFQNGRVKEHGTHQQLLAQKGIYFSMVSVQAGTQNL
T1 sequence (O95255 whole entry): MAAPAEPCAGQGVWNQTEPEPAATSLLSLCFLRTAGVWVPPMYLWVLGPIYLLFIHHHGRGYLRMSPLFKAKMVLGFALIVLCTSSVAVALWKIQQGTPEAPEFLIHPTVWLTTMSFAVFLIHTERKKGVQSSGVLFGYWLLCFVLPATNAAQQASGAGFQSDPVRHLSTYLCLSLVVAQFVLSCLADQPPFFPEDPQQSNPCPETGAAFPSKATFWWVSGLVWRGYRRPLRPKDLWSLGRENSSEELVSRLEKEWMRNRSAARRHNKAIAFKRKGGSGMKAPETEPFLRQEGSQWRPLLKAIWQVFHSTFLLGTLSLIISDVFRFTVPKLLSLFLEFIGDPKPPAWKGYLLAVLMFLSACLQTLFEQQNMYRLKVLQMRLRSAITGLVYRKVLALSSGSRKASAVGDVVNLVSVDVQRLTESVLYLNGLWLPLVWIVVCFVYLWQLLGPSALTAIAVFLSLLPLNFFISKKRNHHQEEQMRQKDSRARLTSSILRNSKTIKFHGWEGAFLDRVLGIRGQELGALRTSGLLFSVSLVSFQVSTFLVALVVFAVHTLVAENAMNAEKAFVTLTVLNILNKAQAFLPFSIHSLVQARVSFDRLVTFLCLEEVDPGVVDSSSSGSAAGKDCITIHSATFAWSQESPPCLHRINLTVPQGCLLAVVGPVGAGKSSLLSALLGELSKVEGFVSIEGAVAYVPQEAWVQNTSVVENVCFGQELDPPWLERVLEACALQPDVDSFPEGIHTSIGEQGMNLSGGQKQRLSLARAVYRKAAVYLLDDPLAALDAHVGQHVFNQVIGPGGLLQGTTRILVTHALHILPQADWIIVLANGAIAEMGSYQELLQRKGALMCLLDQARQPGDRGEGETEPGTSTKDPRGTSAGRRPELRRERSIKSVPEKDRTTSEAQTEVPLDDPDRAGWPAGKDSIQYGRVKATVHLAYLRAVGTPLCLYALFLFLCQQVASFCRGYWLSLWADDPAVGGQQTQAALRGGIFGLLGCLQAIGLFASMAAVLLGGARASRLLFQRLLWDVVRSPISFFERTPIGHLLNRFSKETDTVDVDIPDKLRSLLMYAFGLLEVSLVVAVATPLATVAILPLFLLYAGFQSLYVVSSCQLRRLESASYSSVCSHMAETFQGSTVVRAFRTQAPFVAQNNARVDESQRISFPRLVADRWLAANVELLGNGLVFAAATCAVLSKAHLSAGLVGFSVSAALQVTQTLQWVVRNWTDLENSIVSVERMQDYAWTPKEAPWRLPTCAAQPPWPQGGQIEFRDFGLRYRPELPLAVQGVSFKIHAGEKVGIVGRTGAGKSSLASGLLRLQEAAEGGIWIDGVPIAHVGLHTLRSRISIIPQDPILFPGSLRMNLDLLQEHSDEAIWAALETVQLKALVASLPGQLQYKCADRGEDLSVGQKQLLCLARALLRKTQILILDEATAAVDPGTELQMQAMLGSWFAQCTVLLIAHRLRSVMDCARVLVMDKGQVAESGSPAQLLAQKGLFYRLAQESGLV
T3 sequence (P78363 whole entry P1380L): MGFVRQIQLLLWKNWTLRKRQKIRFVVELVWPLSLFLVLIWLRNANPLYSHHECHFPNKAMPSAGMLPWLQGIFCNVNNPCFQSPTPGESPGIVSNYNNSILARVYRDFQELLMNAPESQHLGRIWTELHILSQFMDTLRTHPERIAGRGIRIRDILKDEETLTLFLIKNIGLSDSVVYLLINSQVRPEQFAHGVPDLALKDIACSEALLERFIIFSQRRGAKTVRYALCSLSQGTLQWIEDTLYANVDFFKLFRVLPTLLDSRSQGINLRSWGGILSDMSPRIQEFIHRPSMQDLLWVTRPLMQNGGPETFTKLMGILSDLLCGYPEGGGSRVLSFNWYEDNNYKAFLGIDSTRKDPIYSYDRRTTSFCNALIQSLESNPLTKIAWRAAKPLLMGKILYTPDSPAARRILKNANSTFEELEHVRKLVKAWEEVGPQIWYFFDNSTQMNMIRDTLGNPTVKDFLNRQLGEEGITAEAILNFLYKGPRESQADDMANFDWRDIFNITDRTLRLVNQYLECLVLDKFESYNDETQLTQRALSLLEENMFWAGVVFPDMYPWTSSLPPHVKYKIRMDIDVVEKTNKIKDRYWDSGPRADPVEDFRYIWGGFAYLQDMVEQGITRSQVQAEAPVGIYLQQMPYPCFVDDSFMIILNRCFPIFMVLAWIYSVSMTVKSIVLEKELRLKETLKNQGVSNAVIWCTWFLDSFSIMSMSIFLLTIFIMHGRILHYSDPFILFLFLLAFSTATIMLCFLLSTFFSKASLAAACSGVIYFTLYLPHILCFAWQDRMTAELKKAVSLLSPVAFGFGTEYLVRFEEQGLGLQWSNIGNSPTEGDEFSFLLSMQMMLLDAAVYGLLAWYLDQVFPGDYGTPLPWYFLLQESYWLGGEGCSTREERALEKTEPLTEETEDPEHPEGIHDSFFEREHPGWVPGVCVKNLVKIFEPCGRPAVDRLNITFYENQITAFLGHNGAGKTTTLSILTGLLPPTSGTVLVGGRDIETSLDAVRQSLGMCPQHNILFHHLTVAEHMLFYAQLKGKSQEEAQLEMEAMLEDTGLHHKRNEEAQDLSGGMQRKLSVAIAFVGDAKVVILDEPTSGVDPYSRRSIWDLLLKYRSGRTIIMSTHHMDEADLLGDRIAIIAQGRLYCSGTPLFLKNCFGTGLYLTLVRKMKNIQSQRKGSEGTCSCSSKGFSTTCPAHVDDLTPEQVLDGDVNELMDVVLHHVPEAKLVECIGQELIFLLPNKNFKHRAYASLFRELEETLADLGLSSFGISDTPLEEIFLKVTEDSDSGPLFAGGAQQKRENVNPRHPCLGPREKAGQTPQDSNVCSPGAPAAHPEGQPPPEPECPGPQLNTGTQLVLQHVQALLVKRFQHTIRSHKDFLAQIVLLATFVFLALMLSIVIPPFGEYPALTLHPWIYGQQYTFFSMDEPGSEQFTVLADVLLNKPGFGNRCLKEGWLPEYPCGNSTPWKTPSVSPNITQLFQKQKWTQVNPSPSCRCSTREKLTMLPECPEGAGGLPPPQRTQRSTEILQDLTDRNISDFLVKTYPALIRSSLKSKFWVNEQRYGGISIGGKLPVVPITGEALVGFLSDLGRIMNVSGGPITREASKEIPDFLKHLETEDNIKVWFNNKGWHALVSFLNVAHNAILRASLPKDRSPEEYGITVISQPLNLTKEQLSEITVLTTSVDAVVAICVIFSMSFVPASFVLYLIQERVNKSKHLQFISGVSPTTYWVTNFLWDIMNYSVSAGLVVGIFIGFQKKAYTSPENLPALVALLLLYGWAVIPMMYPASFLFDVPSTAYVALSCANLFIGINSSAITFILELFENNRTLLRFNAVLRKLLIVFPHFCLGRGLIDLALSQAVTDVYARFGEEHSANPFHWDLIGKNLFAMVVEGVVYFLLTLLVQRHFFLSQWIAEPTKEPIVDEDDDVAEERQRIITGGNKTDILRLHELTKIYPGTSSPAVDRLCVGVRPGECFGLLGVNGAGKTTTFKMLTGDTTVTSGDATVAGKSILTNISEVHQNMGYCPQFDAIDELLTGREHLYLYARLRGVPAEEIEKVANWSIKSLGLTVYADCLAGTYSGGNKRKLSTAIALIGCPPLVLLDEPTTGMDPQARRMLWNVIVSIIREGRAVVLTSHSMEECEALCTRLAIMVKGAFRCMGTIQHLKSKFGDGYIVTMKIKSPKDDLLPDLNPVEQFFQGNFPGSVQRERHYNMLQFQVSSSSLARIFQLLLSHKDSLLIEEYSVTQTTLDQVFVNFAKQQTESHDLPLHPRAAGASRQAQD

In the case of `Cc1cc(C)c(Oc2nc(N3CC4CC3CN4C(=O)C3CC3)ccc2NS(C)(=O)=O)c(C)c1` (single isomer, unassigned) [Compound I-18], the EC50 in experiment [1] was 1 to 10 µM; in experiment [2] it was ≥ 25 µM; in experiment [3], 10 to 25 µM.
As for `Cc1cc(C)c(Oc2nc(N3CC4CC3CN4C(=O)C3CC3)ccc2NS(C)(=O)=O)c(C)c1` (single isomer, unassigned) [Compound I-19], the values for the concentration for a half-maximal effect (EC50) in experiment [1], in experiment [2] and in experiment [3] were ≥ 25 µM, ≥ 25 µM and > 25 µM, respectively.
Turning to `Cc1cc(C)c(Oc2nc(N3CCC(C#N)C3)ccc2NS(C)(=O)=O)c(C)c1` (single isomer, unassigned) [Compound I-261], the EC50 in experiment [1] lay within 1 to 10 µM; in experiment [2] it was 1 to 10 µM; in experiment [3], 10 to 25 µM.
As to `Cc1cc(C)c(Oc2nc(N3CCC(C#N)C3)ccc2NS(C)(=O)=O)c(C)c1` (single isomer, unassigned) [Compound I-262], the EC50 in experiment [1], in experiment [2] and in experiment [3] was 1 to 10 µM each time.
`Cc1cc(C)c(Oc2nc(N3CCN(C(=O)C4CC4)CC3)ccc2NS(C)(=O)=O)c(C2CC2)n1` [Compound I-20]: the values for the EC50 in experiment [1], in experiment [2] and in experiment [3] were 1 to 10 µM, ≥ 25 µM and > 25 µM, respectively.
Taken in the same sequence, the figures for `Cc1cc(C)c(Oc2nc(N3CCn4c(C)nnc4C3)ccc2NS(C)(=O)=O)c(C)c1` [Compound I-21] were 1 to 10 µM, < 25 µM and > 25 µM.
Taken in the same sequence, the figures for `Cc1cc(C)c(Oc2nc(N3CC4CC(C3)N4C(=O)C3CC3)ccc2NS(C)(=O)=O)c(C)c1` [Compound I-22] were 1 to 10 µM, 1 to 10 µM and 1 to 10 µM.
The corresponding values for `Cc1cc(C)c(Oc2nc(N3CCN(C(=O)C4COC4)CC3)ccc2NS(C)(=O)=O)c(C)c1` [Compound I-23] are 10 to 25 µM, 10 to 25 µM and 10 to 25 µM.
For `Cc1cc(C)c(Oc2nc(N3CCN(C(=O)C4CCC4)CC3)ccc2NS(C)(=O)=O)c(C)c1` [Compound I-24], the EC50 in experiment [1] was < 1 µM; in experiment [2], < 1 µM; in experiment [3], 1 to 10 µM.
Turning to `Cc1cc(C)c(Oc2nc(N3CCC4(CN(C(=O)C5CC5)C4)C3)ccc2NS(C)(=O)=O)c(C)c1` [Compound I-25], the EC50 in experiment [1] is 1 to 10 µM; in experiment [2], 1 to 10 µM; in experiment [3], > 25 µM.
With `Cc1cc(C)c(Oc2nc(N3CCN(S(C)(=O)=O)CC3)ccc2NS(C)(=O)=O)c(C)c1` [Compound I-26], the values for the concentration giving a half-maximal response (EC50) in experiment [1], in experiment [2] and in experiment [3] were ≥ 25 µM, 1 to 10 µM and > 25 µM, respectively.
The corresponding values for `CNC(=O)N1CCN(c2ccc(NS(C)(=O)=O)c(Oc3c(C)cc(C)cc3C)n2)CC1` [Compound I-27] are 10 to 25 µM, 10 to 25 µM and 1 to 10 µM.
Taken in the same sequence, the figures for `Cc1cc(C2CC2)nc(C)c1Oc1nc(N2CCN(C(=O)C3CC3)CC2)ccc1NS(C)(=O)=O` [Compound I-28] were ≥ 25 µM, 1 to 10 µM and 1 to 10 µM.
For `Cc1cc(C)c(Oc2nc(-c3cncc(Cl)c3)ccc2NS(=O)(=O)C(C)C)c(C)c1` [Compound I-29], the values for the EC50 in experiment [1], in experiment [2] and in experiment [3] were < 1 µM, ≥ 25 µM and > 25 µM, respectively.
The corresponding values for `Cc1cc(C)c(Oc2nc(N3CCn4c(cnc4C)C3)ccc2NS(C)(=O)=O)c(C)c1` [Compound I-30] are 1 to 10 µM, 1 to 10 µM and < 1 µM.
Take `Cc1cc(C)c(Oc2nc(N3CC4(CCN(C(=O)C5CC5)C4)C3)ccc2NS(C)(=O)=O)c(C)c1` [Compound I-31]: the EC50 was 1 to 10 µM in experiment [1], ≥ 25 µM in experiment [2] and > 25 µM in experiment [3].
The corresponding values for `Cc1cc(C)c(Oc2nc(N3CCN(C(=O)OC(C)C)CC3)ccc2NS(C)(=O)=O)c(C)c1` [Compound I-32] are 1 to 10 µM, ≥ 25 µM and 1 to 10 µM.
Taken in the same sequence, the figures for `Cc1cc(C)c(Oc2nc(N3CCN(C(=O)N(C)C)CC3)ccc2NS(C)(=O)=O)c(C)c1` [Compound I-33] were 1 to 10 µM, 10 to 25 µM and > 25 µM.
The corresponding values for `Cc1cc(C)c(Oc2nc(N3CCN(C(=O)C(C)(C)C)CC3)ccc2NS(C)(=O)=O)c(C)c1` [Compound I-34] are 1 to 10 µM, 1 to 10 µM and 10 to 25 µM.
For the compound `Cc1cc(C)c(Oc2nc(N3C4CC3CN(C(=O)C3CC3)C4)ccc2NS(C)(=O)=O)c(C)c1` [Compound I-35], the EC50 in experiment [1] was ≥ 25 µM; in experiment [2] it was ≥ 25 µM; in experiment [3], > 25 µM.
For the compound `Cc1cc(C)c(Oc2nc(-c3cnc(C#N)c(Cl)c3)ccc2NS(C)(=O)=O)c(C)c1` [Compound I-36], the EC50 in experiment [1] was < 1 µM; in experiment [2] it was ≥ 25 µM; in experiment [3], < 1 µM.
Regarding `Cc1cc(C2CC2)nc(C)c1Oc1nc(-c2cncc(Cl)c2)ccc1NS(C)(=O)=O` [Compound I-37], the EC50 in experiment [1], in experiment [2] and in experiment [3] was < 1 µM each time.
As for `Cc1cc(C)c(Oc2nc(N3CC4(CN(C(=O)C5CC5)C4)C3)ccc2NS(C)(=O)=O)c(C)c1` [Compound I-38], the EC50 in experiment [1] is ≥ 25 µM; in experiment [2] it was ≥ 25 µM; in experiment [3] it was > 25 µM.
`Cc1cc(C)c(Oc2nc(-c3cncc(C#N)c3)ccc2NS(C)(=O)=O)c(C)c1` [Compound I-39]: the 50% effective concentration (EC50) in experiment [1], in experiment [2] and in experiment [3] was < 1 µM each time.
In the case of `Cc1cc(C)c(Oc2nc(-c3cncc(Cl)c3)ccc2NS(C)(=O)=O)c(C2CC2)n1` [Compound I-40], the EC50 in experiment [1], in experiment [2] and in experiment [3] was < 1 µM in each case.
As to `Cc1cc(C)c(Oc2nc(-c3cncc(Cl)c3)ccc2NS(=O)(=O)C2COC2)c(C)c1` [Compound I-41], the figures for the EC50 in experiment [1], in experiment [2] and in experiment [3] were < 1 µM, ≥ 25 µM and < 1 µM, respectively.
In the case of `Cc1cc(C)c(Oc2nc(-c3cncc(Cl)c3)ccc2NS(=O)(=O)C2CC2)c(C)n1` [Compound I-238], the EC50 in experiment [1] is < 1 µM; in experiment [2], < 25 µM; in experiment [3], 1 to 10 µM.
Taken in the same sequence, the figures for `Cc1cc(C)c(Oc2nc(-c3ccnc(C#N)c3)ccc2NS(C)(=O)=O)c(C)n1` [Compound I-239] were < 1 µM, < 25 µM and < 1 µM.
Turning to `Cc1cc(C(F)(F)F)nc(C)c1Oc1nc(-c2cncc(C#N)c2)ccc1NS(C)(=O)=O` [Compound I-240], the EC50 is < 1 µM in experiment [1], < 1 µM in experiment [2] and < 25 µM in experiment [3].
Take `Cc1cc(C)c(Oc2nc(-c3cccc(C#N)n3)ccc2NS(C)(=O)=O)c(C)n1` [Compound I-241]: the EC50 in experiment [1] was 10 to 25 µM; in experiment [2], 10 to 25 µM; in experiment [3] it was > 25 µM.
Take `CCCS(=O)(=O)Nc1ccc(-c2cncc(C#N)c2)nc1Oc1c(C)cc(C)nc1C` [Compound I-242]: the concentration for a half-maximal effect (EC50) in experiment [1] was < 1 µM; in experiment [2], 1 to 10 µM; in experiment [3], 1 to 10 µM.
For `Cc1cc(C)c(Oc2nc(-c3cncc(C#N)c3)ccc2NS(=O)(=O)C2CCC2)c(C)n1` [Compound I-243], the EC50 in experiment [1], in experiment [2] and in experiment [3] was < 1 µM in each case.
